Source: US7767666B2, “Butyl and butynyl benzyl amine compounds” (Janssen Pharmaceutica NV, priority 2006, dated 2010)

Key:
human SERT = biological target: T1, human SERT (Homo sapiens, UniProt P31645); assay: Human SERT 3H-citalopram binding; conditions: HEK293 membranes expressing the human SERT, rt 1 h
T1 construct: expressed in transfected cells; host or cells: HEK293 membranes
Procedure: Homogenized HEK293 (Human Embryonic Kidney) membranes expressing the human SERT were incubated with ^3H-citalopram (SERT) at rt for 1 h in 50 mM Tris, 120 mM NaCl, 5 mM KCl (pH 7.4). […] The membranes were washed and the radioactivity was counted as above.

human H3 receptor = biological target: T2, human H3 receptor (Homo sapiens, UniProt Q9Y5N1); assay: H3 receptor binding; conditions: cloned human H3 receptor stably expressed in SK-N-MC cells
T2 construct: expressed in transfected cells

Rat SERT = biological target: T3, Rat SERT (Rattus norvegicus, UniProt P31652); assay: Rat brain SERT [3H]-citalopram binding; conditions: rat brain membranes, 0.6 nM [3H]-Citalopram, 60 min at 25° C.
T3 construct: A rat brain without cerebellum (Zivic Laboratories, Inc.—Pittsburgh, Pa.) was homogenized; tissue Zivic Laboratories, Inc; host or cells: rat brain without cerebellum, membrane preparation
Procedure: The supernatant was removed and re-centrifuged at 15,000 rpm for 30 min. […] Membranes were incubated with 0.6 nM [^3H]-Citalopram plus/minus test compounds for 60 min at 25° C. and harvested by rapid filtration over GF/C glass fiber filters (pretreated with 0.3% polyethylenimine) followed by four washes with ice-cold buffer.

T1 sequence (P31645 whole entry): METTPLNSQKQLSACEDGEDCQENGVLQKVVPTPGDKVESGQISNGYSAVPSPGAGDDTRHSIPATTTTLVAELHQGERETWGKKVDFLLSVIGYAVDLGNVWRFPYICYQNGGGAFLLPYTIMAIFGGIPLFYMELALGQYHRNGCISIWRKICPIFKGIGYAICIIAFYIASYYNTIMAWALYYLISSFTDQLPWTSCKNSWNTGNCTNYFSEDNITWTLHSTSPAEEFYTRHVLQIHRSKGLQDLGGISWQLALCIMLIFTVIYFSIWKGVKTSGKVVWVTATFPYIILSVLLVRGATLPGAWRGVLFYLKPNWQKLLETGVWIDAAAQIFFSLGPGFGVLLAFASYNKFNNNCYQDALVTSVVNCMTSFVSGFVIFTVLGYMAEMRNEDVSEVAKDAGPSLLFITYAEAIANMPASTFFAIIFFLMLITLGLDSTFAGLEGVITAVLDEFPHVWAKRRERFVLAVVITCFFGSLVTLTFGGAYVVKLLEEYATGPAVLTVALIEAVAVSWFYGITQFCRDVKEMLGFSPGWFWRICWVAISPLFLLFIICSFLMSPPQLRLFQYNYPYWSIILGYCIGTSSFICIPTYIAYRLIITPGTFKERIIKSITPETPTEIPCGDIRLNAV
T3 sequence (P31652 whole entry): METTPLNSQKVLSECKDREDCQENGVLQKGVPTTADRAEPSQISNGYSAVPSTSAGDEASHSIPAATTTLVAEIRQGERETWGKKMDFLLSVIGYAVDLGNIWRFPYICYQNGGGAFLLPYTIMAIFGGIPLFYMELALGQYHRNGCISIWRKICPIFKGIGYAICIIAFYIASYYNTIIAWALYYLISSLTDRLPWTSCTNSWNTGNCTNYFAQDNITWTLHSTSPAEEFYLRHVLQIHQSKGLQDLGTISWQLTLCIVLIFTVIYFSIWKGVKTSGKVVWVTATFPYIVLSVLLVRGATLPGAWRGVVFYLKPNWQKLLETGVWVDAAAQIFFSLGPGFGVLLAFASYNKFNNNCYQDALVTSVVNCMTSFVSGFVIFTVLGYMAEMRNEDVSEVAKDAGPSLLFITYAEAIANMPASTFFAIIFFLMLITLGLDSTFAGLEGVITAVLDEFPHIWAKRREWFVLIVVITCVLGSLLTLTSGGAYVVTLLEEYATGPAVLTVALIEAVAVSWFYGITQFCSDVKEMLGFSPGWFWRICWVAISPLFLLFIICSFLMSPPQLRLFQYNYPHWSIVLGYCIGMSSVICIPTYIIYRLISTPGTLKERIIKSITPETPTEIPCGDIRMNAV
T2 sequence (Q9Y5N1 whole entry): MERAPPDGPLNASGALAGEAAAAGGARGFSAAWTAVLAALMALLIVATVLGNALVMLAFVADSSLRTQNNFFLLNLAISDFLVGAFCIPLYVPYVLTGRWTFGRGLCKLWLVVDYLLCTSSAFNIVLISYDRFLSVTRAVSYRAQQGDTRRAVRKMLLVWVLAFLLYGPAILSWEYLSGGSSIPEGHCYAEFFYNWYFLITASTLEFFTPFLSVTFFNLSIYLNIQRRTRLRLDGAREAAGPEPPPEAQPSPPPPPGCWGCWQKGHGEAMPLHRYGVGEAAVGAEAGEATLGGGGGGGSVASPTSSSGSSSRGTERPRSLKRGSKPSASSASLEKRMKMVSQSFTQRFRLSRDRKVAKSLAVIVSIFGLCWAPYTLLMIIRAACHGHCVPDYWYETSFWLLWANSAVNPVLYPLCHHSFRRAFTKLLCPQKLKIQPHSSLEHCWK

| Ki (human H3 receptor) [nM] | Ki (Rat SERT) [nM] | SMILES | Ki (human SERT) [nM] |
| --- | --- | --- | --- |
| 11 | 2.4 | CNCc1cc(C#CCCN2CCOCC2)ccc1Oc1ccc(Cl)c(Cl)c1 [Example 1, [2-(3,4-Dichloro-phenoxy)-5-(4-morpholin-4-yl-but-1-ynyl)-benzyl]-methyl-amine] | 1.8 |
| 5.4 | 0.9 | CNCc1cc(C#CCCN2CCSCC2)ccc1Oc1ccc(SC)cc1 [Example 9, Methyl-[2-(4-methylsulfanyl-phenoxy)-5-(4-thiomorpholin-4-yl-but-1-ynyl)-benzyl]-amine] | 2.5 |
| 31 | 0.5 | CNCc1cc(C#CCCN2CCN(C(C)C)CC2)ccc1Oc1ccc(SC)cc1 [Example 10, [5-[4-(4-Isopropyl-piperazin-1-yl)-but-1-ynyl]-2-(4-methylsulfanyl-phenoxy)-benzyl]-methyl-amine] | 13 |
| 52 | 2 | CNCc1cc(C#CCCN2CCN(C3CC3)CC2)ccc1Oc1ccc(SC)cc1 [Example 13, [5-[4-(4-Cyclopropyl-piperazin-1-yl)-but-1-ynyl]-2-(4-methylsulfanyl-phenoxy)-benzyl]-methyl-amine] | 3.5 |
| 17 | 0.3 | CNCc1cc(C#CCCNC2CC2)ccc1Oc1ccc(SC)cc1 [Example 14, Cyclopropyl-{4-[3-methylaminomethyl-4-(4-methylsulfanyl-phenoxy)-phenyl]-but-3-ynyl}-amine] | 12 |
| 17 | 1.8 | CNCc1cc(C#CCCNC2CC2)ccc1Oc1ccc(Cl)c(Cl)c1 [Example 15, Cyclopropyl-{4-[4-(3,4-dichloro-phenoxy)-3-methylaminomethyl-phenyl]-but-3-ynyl}-amine] | 1.4 |
| 100 | 40 | CNCc1cc(C#CCCN(C2CC2)C2CC2)ccc1Oc1ccc(Cl)c(Cl)c1 [Example 17, N,N-Dicyclopropyl-{4-[4-(3,4-dichloro-phenoxy)-3-methylaminomethyl-phenyl]-but-3-ynyl}-amine] | – |
| 2 | 7 | CNCc1cc(C#CCCN2CCOCC2)ccc1Oc1cccnc1 [Example 21, Methyl-[5-(4-morpholin-4-yl-but-1-ynyl)-2-(pyridine-3-yloxy)-benzyl]-amine] | – |
| 10 | 5 | Clc1ccc(Oc2ccc(C#CCCN3CCOCC3)cc2CNC2CC2)cc1 [Example 22, [2-(4-Chloro-phenoxy)-5-(4-morpholin-4-yl-but-1-ynyl)-benzyl]-cyclopropyl-amine] | – |
| 4 | 1.9 | CNCc1cc(C#CCCN2CCOCC2)ccc1Oc1ccc(C)nc1 [Example 24, Methyl-[2-(6-methyl-pyridin-3-yloxy)-5-(4-morpholin-4-yl-but-1-ynyl)-benzyl]-amine] | 5 |
| 1870 | 1 | CNCc1cc(C#CCCN2CCN(C(C)C)C(=O)C2)ccc1Oc1ccc(SC)cc1 [Example 25, 1-Isopropyl-4-{4-[3-methylaminomethyl-4-(4-methylsulfanyl-phenoxy)-phenyl]-but-3-ynyl}-piperazin-2-one] | 1.2 |
| 32 | 1 | CNCc1cc(C#CCCN2CCOCC2)ccc1Sc1ccc(Cl)cc1 [Example 31, [2-(4-Chloro-phenylsulfanyl)-5-(4-morpholin-4-yl-but-1-ynyl)-benzyl]-methyl-amine] | – |
| 5.2 | 0.4 | CNCc1cc(CCCCN2CCN(C(C)C)CC2)ccc1Oc1ccc(SC)cc1 [Example 33, [5-[4-(4-Isopropyl-piperazin-1-yl)-butyl]-2-(4-methylsulfanyl-phenoxy)-benzyl]-methyl-amine] | 1.4 |
| 46 | 24 | CSc1ccc(Oc2ccc(C#CCCN3CCCCC3)cc2CN(C)C(=O)OC(C)(C)C)cc1 [Example 35, Methyl-[2-(4-methylsulfanyl-phenoxy)-5-(4-piperidin-1-yl-but-1-ynyl)-benzyl]-carbamic acid tert-butyl ester] | – |
| 190 | 32 | CNCc1cc(C#CCCN2CCOCC2)ccc1Sc1cc(C(F)(F)F)ccn1 [Example 36, Methyl-[5-(4-morpholin-4-yl-but-1-ynyl)-2-(4-trifluoromethyl-pyridin-2-ylsulfanyl)-benzyl]-amine] | – |

| SMILES | Ki (human H3 receptor) [nM] | Ki (Rat SERT) [nM] | Ki (human SERT) [nM] |
| --- | --- | --- | --- |
| CNCc1cc(C#CCCN2CCOCC2)ccc1Oc1ccccc1 [Example 6, Methyl-[5-(4-morpholin-4-yl-but-1-ynyl)-2-phenoxy-benzyl]-amine] | – | 11 | 30 |
| CNCc1cc(C#CCCN(C)C2CC2)ccc1Oc1ccc(Cl)c(Cl)c1 [Example 18, Cyclopropyl-{4-[4-(3,4-dichloro-phenoxy)-3-methylaminomethyl-phenyl]-but-3-ynyl}-methyl-amine] | 9.7 | 6.4 | 5.9 |
| CNCc1cc(C#CCCN2CCNC(=O)C2)ccc1Oc1ccc(SC)cc1 [Example 19, 4-{4-[3-Methylaminomethyl-4-(4-methylsulfanyl-phenoxy)-phenyl]-but-3-ynyl}-piperazin-2-one] | 864 | 0.4 | 1.6 |
| CNCc1cc(C#CCCN2CCCN(C(C)C)CC2)ccc1Oc1ccc(SC)cc1 [Example 20, [5-[4-(4-Isopropyl-[1,4]diazepan-1-yl)-but-1-ynyl]-2-(4-methylsulfanyl-phenoxy)-benzyl]-methyl-amine] | 93 | 0.7 | 3.6 |
| CNCc1cc(C#CCCN2CCSCC2)ccc1Oc1ccc(Cl)c(Cl)c1 [Example 26, [2-(3,4-Dichloro-phenoxy)-5-(4-thiomorpholin-4-yl-but-1-ynyl)-benzyl]-methyl-amine] | 13 | 5.7 | 6.7 |
| CNCc1cc(C#CCCN2CCC(F)CC2)ccc1Oc1ccc(Cl)c(Cl)c1 [Example 29, {2-(3,4-Dichloro-phenoxy)-5-[4-(4-fluoro-piperidin-1-yl)-but-1-ynyl]-benzyl}-methyl-amine] | 14 | 2.1 | 27 |
| CNCc1cc(CCCCN2CCN(C3CC3)CC2)ccc1Oc1ccc(SC)cc1 [Example 32, [5-[4-(4-Cyclopropyl-piperazin-1-yl)-butyl]-2-(4-methylsulfanyl-phenoxy)-benzyl]-methyl-amine] | 4.7 | 0.6 | 2 |
| CNCc1cc(CCCCN2CCSCC2)ccc1Oc1ccc(SC)cc1 [Example 34, Methyl-[2-(4-methylsulfanyl-phenoxy)-5-(4-thiomorpholin-4-yl-butyl)-benzyl]-amine] | 9.7 | 0.9 | 1.9 |
| CNCc1ccc(C#CCCN2CCOCC2)cc1Oc1ccc(SC)cc1 [Example 37, Methyl-[2-(4-methylsulfanyl-phenoxy)-4-(4-morpholin-4-yl-but-1-ynyl)-benzyl]-amine] | 423 | 1.8 | 3.4 |
